Experimental data as given in the kinase profiling compilation of Christmann-Franck et al. (2016).

Key:
Assay in all cases: radiometric filter-binding kinase assay, Kinase HotSpot
Details in all cases: compound 0.5 µM; ATP 10 µM
ABL1 (human) = ABL1 (human) (UniProt P00519)
ACVR1 (human) = ACVR1 (human) (UniProt Q04771)
ADRBK1 (human) = ADRBK1 (human) (UniProt P25098)
ADRBK2 (human) = ADRBK2 (human) (UniProt P35626)
BRAF (human) = BRAF (human) (UniProt P15056)
CAMK1G (human) = CAMK1G (human) (UniProt Q96NX5)
CDC42BPB (human) = CDC42BPB (human) (UniProt Q9Y5S2)
CDK1 CCNB1 (human) = CDK1 CCNB1 (human) (UniProt P06493+P14635)
CHUK (human) = CHUK (human) (UniProt O15111)
DAPK3 (human) = DAPK3 (human) (UniProt O43293)
DYRK1A (human) = DYRK1A (human) (UniProt Q13627)
DYRK2 (human) = DYRK2 (human) (UniProt Q92630)
EPHB3 (human) = EPHB3 (human) (UniProt P54753)
ERBB2 (human) = ERBB2 (human) (UniProt P04626)
FGR (human) = FGR (human) (UniProt P09769)
IKBKB (human) = IKBKB (human) (UniProt O14920)
ITK (human) = ITK (human) (UniProt Q08881)
LRRK2 (human) = LRRK2 (human) (UniProt Q5S007)
MAP2K1 (human) = MAP2K1 (human) (UniProt Q02750)
NEK6 (human) = NEK6 (human) (UniProt Q9HC98)
NEK9 (human) = NEK9 (human) (UniProt Q8TD19)
NTRK1 (human) = NTRK1 (human) (UniProt P04629)
PAK1 (human) = PAK1 (human) (UniProt Q13153)
PDPK1 (human) = PDPK1 (human) (UniProt O15530)
PIM2 (human) = PIM2 (human) (UniProt Q9P1W9)
PRKCI (human) = PRKCI (human) (UniProt P41743)
RET (human) = RET (human) (UniProt P07949)
ROCK2 (human) = ROCK2 (human) (UniProt O75116)
SGK3 (human) = SGK3 (human) (UniProt Q96BR1)
STK10 (human) = STK10 (human) (UniProt O94804)
STK3 (human) = STK3 (human) (UniProt Q13188)
TNK2 (human) = TNK2 (human) (UniProt Q07912)
TSSK2 (human) = TSSK2 (human) (UniProt Q96PF2)
TXK (human) = TXK (human) (UniProt P42681)
ULK1 (human) = ULK1 (human) (UniProt O75385)
Sequence of ULK1 (human) (O75385 whole entry, looked up): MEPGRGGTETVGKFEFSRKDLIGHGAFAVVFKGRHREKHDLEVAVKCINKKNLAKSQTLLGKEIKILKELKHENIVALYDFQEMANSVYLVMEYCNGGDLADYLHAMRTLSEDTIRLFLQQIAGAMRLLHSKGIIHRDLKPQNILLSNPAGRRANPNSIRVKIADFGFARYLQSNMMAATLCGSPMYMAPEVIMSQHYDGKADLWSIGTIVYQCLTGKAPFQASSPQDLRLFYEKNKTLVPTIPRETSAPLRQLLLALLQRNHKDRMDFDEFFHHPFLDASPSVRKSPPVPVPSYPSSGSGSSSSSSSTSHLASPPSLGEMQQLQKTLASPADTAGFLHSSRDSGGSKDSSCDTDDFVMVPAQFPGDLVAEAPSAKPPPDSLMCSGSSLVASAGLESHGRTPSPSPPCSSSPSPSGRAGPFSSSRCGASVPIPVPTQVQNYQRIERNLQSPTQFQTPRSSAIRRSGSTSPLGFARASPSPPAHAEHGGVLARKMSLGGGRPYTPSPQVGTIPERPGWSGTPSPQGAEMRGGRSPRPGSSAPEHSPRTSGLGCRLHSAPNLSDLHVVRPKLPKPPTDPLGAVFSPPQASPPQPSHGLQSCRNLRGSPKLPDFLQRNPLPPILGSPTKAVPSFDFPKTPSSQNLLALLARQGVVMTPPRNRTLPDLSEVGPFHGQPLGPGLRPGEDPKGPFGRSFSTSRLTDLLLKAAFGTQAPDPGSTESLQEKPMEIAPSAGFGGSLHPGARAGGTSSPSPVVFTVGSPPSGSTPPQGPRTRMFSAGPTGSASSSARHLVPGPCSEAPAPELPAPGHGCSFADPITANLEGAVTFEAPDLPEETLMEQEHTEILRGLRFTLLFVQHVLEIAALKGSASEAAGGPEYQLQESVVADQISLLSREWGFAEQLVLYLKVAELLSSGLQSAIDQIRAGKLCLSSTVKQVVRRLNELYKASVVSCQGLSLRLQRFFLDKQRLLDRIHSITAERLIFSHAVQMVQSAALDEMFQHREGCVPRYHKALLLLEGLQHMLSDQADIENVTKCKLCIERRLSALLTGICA

Sequence of CDC42BPB (human) (Q9Y5S2 whole entry, looked up): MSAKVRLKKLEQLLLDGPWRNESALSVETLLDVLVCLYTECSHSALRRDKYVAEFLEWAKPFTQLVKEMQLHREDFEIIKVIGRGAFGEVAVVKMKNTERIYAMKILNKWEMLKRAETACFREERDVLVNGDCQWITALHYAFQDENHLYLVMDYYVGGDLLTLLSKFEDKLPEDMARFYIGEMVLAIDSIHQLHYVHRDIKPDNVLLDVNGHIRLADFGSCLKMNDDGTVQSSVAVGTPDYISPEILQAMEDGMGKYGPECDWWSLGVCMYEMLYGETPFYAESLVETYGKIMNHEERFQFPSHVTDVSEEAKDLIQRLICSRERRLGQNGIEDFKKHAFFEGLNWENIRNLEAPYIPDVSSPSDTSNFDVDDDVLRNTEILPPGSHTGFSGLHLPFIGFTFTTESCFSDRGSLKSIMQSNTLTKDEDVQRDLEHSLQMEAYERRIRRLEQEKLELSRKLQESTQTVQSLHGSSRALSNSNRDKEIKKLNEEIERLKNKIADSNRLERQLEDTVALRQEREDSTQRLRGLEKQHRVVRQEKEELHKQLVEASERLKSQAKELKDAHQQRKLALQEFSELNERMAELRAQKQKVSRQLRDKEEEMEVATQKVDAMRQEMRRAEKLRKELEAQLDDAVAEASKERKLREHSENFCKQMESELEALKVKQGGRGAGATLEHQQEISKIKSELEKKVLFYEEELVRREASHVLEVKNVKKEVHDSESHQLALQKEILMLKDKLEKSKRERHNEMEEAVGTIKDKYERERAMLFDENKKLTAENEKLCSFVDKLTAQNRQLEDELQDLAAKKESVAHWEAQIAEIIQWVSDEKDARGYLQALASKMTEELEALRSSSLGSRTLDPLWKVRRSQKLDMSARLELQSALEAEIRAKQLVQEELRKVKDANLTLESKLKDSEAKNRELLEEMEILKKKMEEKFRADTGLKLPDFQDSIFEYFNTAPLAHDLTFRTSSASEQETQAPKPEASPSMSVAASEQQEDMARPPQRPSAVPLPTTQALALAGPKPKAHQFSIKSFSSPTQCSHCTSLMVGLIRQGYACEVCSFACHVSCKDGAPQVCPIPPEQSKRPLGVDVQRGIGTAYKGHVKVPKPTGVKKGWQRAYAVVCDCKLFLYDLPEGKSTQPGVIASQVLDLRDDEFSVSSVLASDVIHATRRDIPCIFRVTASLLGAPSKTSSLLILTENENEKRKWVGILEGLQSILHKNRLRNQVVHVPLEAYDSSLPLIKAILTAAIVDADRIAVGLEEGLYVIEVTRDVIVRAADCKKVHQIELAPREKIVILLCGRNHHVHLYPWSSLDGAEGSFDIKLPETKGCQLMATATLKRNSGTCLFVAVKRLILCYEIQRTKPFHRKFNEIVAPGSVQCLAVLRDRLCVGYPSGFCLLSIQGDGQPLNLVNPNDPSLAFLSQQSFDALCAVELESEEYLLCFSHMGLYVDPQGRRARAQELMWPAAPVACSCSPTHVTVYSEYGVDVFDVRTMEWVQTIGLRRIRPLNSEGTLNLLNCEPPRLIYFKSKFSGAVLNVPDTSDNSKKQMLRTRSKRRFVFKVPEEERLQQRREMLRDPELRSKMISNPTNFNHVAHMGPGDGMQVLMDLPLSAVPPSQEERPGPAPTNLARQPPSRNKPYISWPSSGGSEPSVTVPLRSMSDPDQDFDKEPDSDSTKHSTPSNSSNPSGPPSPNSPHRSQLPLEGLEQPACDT
Sequence of NTRK1 (human) (P04629 whole entry, looked up): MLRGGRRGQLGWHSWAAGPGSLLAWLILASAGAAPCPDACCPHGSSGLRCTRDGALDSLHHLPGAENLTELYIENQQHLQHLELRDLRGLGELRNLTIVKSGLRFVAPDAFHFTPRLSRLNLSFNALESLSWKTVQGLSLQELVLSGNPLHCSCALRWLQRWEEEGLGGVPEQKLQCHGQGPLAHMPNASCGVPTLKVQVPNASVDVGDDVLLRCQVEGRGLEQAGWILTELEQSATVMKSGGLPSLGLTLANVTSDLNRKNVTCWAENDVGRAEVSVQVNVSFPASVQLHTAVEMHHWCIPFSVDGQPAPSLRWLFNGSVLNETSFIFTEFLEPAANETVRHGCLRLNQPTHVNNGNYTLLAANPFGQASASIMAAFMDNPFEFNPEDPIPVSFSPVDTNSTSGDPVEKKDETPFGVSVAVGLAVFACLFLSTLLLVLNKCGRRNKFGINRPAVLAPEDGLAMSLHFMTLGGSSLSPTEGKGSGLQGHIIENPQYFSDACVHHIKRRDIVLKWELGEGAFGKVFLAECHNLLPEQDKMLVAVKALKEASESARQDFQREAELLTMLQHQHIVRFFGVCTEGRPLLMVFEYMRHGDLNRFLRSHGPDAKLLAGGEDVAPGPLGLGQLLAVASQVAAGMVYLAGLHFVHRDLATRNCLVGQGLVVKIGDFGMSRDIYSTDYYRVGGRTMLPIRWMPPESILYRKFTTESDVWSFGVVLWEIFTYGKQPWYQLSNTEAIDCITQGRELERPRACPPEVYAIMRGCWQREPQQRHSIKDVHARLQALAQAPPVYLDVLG
Sequence of STK3 (human) (Q13188 whole entry, looked up): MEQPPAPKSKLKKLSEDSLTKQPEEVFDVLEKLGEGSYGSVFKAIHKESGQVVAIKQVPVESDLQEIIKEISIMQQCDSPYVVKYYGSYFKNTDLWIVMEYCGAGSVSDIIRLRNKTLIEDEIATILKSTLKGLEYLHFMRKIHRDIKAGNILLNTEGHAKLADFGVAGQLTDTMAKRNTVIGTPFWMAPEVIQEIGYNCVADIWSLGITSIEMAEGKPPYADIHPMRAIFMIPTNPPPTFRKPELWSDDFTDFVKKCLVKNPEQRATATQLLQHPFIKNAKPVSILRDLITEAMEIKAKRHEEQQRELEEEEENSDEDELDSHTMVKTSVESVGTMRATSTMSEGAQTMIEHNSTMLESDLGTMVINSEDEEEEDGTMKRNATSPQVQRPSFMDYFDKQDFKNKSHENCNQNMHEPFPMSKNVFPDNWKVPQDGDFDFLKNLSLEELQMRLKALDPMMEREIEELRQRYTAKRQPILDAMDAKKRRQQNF
Sequence of PIM2 (human) (Q9P1W9 whole entry, looked up): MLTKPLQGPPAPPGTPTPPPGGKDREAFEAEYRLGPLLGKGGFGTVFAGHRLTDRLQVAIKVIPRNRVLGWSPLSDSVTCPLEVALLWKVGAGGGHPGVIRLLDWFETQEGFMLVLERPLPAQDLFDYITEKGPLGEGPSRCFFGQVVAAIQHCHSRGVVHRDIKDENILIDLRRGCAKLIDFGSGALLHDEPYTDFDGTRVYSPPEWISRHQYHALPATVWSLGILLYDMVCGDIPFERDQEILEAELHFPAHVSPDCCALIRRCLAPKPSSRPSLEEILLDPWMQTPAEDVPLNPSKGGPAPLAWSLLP
Sequence of CHUK (human) (O15111 whole entry, looked up): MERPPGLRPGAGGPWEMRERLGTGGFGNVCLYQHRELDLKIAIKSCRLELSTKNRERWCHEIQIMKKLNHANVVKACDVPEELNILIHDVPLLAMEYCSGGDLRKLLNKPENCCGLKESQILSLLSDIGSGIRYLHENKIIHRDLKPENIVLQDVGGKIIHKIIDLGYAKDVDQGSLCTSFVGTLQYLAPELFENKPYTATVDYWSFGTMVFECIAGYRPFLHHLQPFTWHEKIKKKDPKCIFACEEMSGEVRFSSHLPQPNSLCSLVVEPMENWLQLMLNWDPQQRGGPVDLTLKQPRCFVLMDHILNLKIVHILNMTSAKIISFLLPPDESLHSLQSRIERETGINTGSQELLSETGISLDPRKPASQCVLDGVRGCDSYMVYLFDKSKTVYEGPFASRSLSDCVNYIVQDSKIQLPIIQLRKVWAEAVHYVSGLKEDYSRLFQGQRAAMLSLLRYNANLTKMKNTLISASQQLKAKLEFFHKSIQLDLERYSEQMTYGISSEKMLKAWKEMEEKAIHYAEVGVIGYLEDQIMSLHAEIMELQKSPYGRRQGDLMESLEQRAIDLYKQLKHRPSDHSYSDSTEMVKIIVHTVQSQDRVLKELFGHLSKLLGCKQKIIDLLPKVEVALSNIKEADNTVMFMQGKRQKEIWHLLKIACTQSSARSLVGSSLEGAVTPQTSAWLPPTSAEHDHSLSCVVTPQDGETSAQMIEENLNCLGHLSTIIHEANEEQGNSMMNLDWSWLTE

SMILES	residual activity (ABL1 (human)) [%]	residual activity (ACVR1 (human)) [%]	residual activity (ADRBK1 (human)) [%]	residual activity (ADRBK2 (human)) [%]	residual activity (BRAF (human)) [%]	residual activity (CAMK1G (human)) [%]	residual activity (CDC42BPB (human)) [%]	residual activity (CDK1 CCNB1 (human)) [%]	residual activity (CHUK (human)) [%]	residual activity (DAPK3 (human)) [%]	residual activity (DYRK1A (human)) [%]	residual activity (DYRK2 (human)) [%]	residual activity (EPHB3 (human)) [%]	residual activity (ERBB2 (human)) [%]	residual activity (FGR (human)) [%]	residual activity (IKBKB (human)) [%]	residual activity (ITK (human)) [%]	residual activity (LRRK2 (human)) [%]	residual activity (MAP2K1 (human)) [%]	residual activity (NEK6 (human)) [%]	further results
O=C1NC(=O)C(c2c[nH]c3ccccc23)=C1c1c[nH]c2ccccc12	89.1	97.1	98.4	87	101	99.5	99	96.5	93.4	104	80.8	97.7	94.3	94.3	88.5	106	102	77.5	95.8	101	residual activity (NEK9 (human)): 97.3%; residual activity (NTRK1 (human)): 92%; residual activity (PAK1 (human)): 83.5%; residual activity (PDPK1 (human)): 96.7%; residual activity (PIM2 (human)): 105%; residual activity (PRKCI (human)): 96.9%; residual activity (RET (human)): 80.6%; residual activity (ROCK2 (human)): 89.2%; residual activity (SGK3 (human)): 97.9%; residual activity (STK10 (human)): 49.6%; residual activity (STK3 (human)): 64.7%; residual activity (TNK2 (human)): 94.9%; residual activity (TSSK2 (human)): 110%; residual activity (TXK (human)): 101%; residual activity (ULK1 (human)): 105%
CCN(CC)CCCCN1c2ccccc2Oc2ccc(Cl)cc21	107	101	96.5	87.5	98.8	99.2	99.7	96.8	98.8	106	104	101	112	96.6	101	96.6	101	115	98.1	107	residual activity (NEK9 (human)): 98.8%; residual activity (NTRK1 (human)): 99.8%; residual activity (PAK1 (human)): 87.7%; residual activity (PDPK1 (human)): 111%; residual activity (PIM2 (human)): 109%; residual activity (PRKCI (human)): 105%; residual activity (RET (human)): 96.3%; residual activity (ROCK2 (human)): 104%; residual activity (SGK3 (human)): 101%; residual activity (STK10 (human)): 97.1%; residual activity (STK3 (human)): 106%; residual activity (TNK2 (human)): 94.7%; residual activity (TSSK2 (human)): 103%; residual activity (TXK (human)): 101%; residual activity (ULK1 (human)): 99.8%
